Test results published in US20250002489A1, “BIFUNCTIONAL COMPOUNDS FOR DEGRADING ITK VIA UBIQUITIN PROTEOSOME PATHWAY” (NURIX THERAPEUTICS, INC., priority 2021, published 2025).

Target: T1, ITK (Jurkat or Molt4 cells) (Homo sapiens, UniProt Q08881)
T1 construct: either human Jurkat (Clone E6-1 ATCC TIB-152) or Motl4 (ATCC CRL-1552), were plated; endogenous in cells; host or cells: Jurkat Clone E6-1 (ATCC TIB-152) or Molt4 (ATCC CRL-1552)
T1 sequence (Q08881 1-620): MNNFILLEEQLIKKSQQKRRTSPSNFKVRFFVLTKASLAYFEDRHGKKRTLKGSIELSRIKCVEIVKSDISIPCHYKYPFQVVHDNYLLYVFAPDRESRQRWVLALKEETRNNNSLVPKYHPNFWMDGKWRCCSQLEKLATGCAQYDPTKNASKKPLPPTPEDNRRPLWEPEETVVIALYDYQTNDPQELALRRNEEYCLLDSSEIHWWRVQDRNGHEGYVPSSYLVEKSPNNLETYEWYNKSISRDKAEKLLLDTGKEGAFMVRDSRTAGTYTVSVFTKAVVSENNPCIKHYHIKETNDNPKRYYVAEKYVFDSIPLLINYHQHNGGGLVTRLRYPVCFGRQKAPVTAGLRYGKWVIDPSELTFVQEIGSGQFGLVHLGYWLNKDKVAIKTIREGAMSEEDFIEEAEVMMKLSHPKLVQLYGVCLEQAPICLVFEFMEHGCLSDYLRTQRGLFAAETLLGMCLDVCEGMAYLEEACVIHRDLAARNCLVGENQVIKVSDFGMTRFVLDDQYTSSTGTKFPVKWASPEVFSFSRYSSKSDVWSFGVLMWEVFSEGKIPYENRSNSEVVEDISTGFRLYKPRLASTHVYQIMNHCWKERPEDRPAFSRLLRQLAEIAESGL
Assay: ITK Degradation MSD (Meso Scale Discovery) Assay
Assay type: cell-based
Settings: 4 or 6 hrs incubation, best fit IC50 used as DC50
Procedure: Compound dilution series (7-point, 5-fold dilutions in DMSO, rows B—H with replicate in Column 1/2, 3/4, 5/6, 7, and 8 at 2000× the final required concentrations were prepared in 96-well plate (Falcon, cat. no. 353077). Row A, Column 1-8 were control DMSO. The 2000× solutions ranged from 2 mM to 128 nM (final assay concentration range 1 μM to […]). The 2000×solutions were added to cells in 10 μL volume, for a final DMSO concentration of 0.5% and final assay compound concentration of 1×. For the cells, either human Jurkat (Clone E6-1 ATCC TIB-152) or Motl4 (ATCC CRL-1552), were plated at 1×10^6 cells/mL, 100 μL/well ([…]) in complete RPMI (10% FBS, 1% L-glutamine). The cells were incubated with compounds 26-29 for 4 or 6 hrs at 32° C./6% CO2.
Following incubation, plates were centrifuged at 1200 rpm for 5 min. Supernatant was removed and 50 μL of cell lysis buffer (MSD Tris lysis buffer (R60TX), complete Mini EDTA-free protease inhibitor (Sigma 11836170001), Protease Inhibitor Cocktail (Sigma, P2714), Phosphatase Inhibitor Cocktail 2 and 3 (Sigma, P5726 and P0044), Benzonase (Sigma, E1014)) was added to each well. Plate was sealed and shook at 4° C. for 30 min. Plate was centrifuged and 45 μL was removed for plate assay.
Assay plate preparation: Meso Scale Discovery (MSD) multi-array sm spot 96-well plates (Goat anti-Rabbit L^45-RA), were blocked with 3% BSA blocking buffer (3% Bovine Serum Albumin (Sigma A3059)+TBS 0.2% Tween-20) for one hour with gentle rocking at room temperature. Plate was then washed with 200 μL of 1×TBST (TBS 0.2% Tween-20) three times. After the last wash, all liquid was removed and 50 μL per well of capture antibody (abcam ITK Y402-ab32507) was added to plate at a 1:1000 dilution in blocking buffer (see above). Plate was sealed and rocked at room temperature for 2 hrs. Plate was then washed three times with 200 μL of 1×TBST. After the last wash, all liquid was removed and 45 μL of cell lysate (from above) was added to plate. Plate was sealed and rocked overnight at 4° C. The next day, cell lysates were removed, and assay plate was washed three times with 200 μL of 1×TBST. After the last wash, liquid was removed and detection antibody (CST ITK (2F12) #2380) was added at 50 μL per well at a dilution of 1:1000 in blocking buffer. Plate was sealed and rocked at room temperature for 2 hrs. Plate was washed three times with 200 μL of 1×TBST. After the last wash, all liquid was removed, MSD […] sulfo tag (R32AC-1) was diluted to 1:1000 in blocking buffer. 50 μL was added to each well on the plate. Plate was sealed and incubated at room temperature for one hour. Plate was washed three times with 200 μL of 1×TBST. After last wash, all liquid was removed and 150 μL of 1×MSD Read Buffer T (R92PC) was then added to each well for ECL read out.
For reading ECL signal, plate was read on a Meso Scale Discovery (MSD) MESO Sector S 600 plate reader. Percent ITK was then calculated as described below.
Percent ITK remaining per sample was calculated as follows: […]
Using Graphpad Prism, % ITK remaining values were plotted as a function of compound concentration. To determine DC50 and Dmax values, resulting curves were fit to the Prism curve-fitting equation “log(inhibitor) vs response−Variable slope (four parameters)” (reported best fit value IC50 used as DC50).

DC50 [µM]	SMILES
0.0136	CN[C@@H](C)C(=O)N[C@H](C(=O)N1CCCC1c1nc(C(=O)c2cccc(OCCOCCOCCOCCOCCOCCC(=O)N3CC([C@@H](c4ccccc4)n4cc(NC(=O)c5n[nH]c6c5C[C@@H]5C(F)(F)[C@]5(C)C6)cn4)C3)c2)cs1)C1CCCCC1 (stereo in doubt) [Compound 4, (4aS,5aR)—N-(1-((S)-(1-(1-(3-(2-((R)-1-((S)-2-cyclohexyl-2-((S)-2-(methylamino)propanamido)acetyl)pyrrolidin-2-yl)thiazole-4-carbonyl)phenoxy)-3,6,9,12,15-pentaoxaoctadecan-18-oyl)azetidin-3-yl)(phenyl)methyl)-1H-pyrazol-4-yl)-5,5-difluoro-5a-methyl-1,4,4a,5,5a,6-hexahydrocyclopropa[f]indazole-3-carboxamide]
0.0146	CN[C@@H](C)C(=O)N[C@H](C(=O)N1CCCC1c1nc(C(=O)c2cccc(OCCOCCC(=O)N3CC([C@@H](c4ccccc4)n4cc(NC(=O)c5n[nH]c6c5C[C@@H]5C(F)(F)[C@]5(C)C6)cn4)C3)c2)cs1)C1CCCCC1 (stereo in doubt) [Compound 5, (4aS,5aR)—N-(1-((S)-(1-(3-(2-(3-(2-((R)-1-((S)-2-cyclohexyl-2-((S)-2-(methylamino)propanamido)acetyl)pyrrolidin-2-yl)thiazole-4-carbonyl)phenoxy)ethoxy)propanoyl)azetidin-3-yl)(phenyl)methyl)-1H-pyrazol-4-yl)-5,5-difluoro-5a-methyl-1,4,4a,5,5a,6-hexahydrocyclopropa[f]indazole-3-carboxamide]
0.251	CN[C@@H](C)C(=O)N[C@H](C(=O)N1C[C@@H](NC(=O)CCOCCC(=O)N2CC([C@@H](c3ccccc3)n3cc(NC(=O)c4n[nH]c5c4C[C@@H]4C(F)(F)[C@]4(C)C5)cn3)C2)C[C@H]1C(=O)N[C@@H]1CCCc2ccccc21)C1CCCCC1 [Compound 1]
0.0797	CN[C@@H](C)C(=O)N[C@H](C(=O)N1C[C@@H](NC(=O)CCOCCOCCOCCOCCC(=O)N2CC([C@@H](c3ccccc3)n3cc(NC(=O)c4n[nH]c5c4C[C@@H]4C(F)(F)[C@]4(C)C5)cn3)C2)C[C@H]1C(=O)N[C@@H]1CCCc2ccccc21)C1CCCCC1 [Compound 2, (4aS,5aR)—N-(1-((S)-(1-(16-(((3S,5S)-1-((S)-2-cyclohexyl-2-((S)-2-(methylamino)propanamido)acetyl)-5-(((R)-1,2,3,4-tetrahydronaphthalen-1-yl)carbamoyl)pyrrolidin-3-yl)amino)-16-oxo-4,7,10,13-tetraoxahexadecanoyl)azetidin-3-yl)(phenyl)methyl)-1H-pyrazol-4-yl)-5,5-difluoro-5a-methyl-1,4,4a,5,5a,6-hexahydrocyclopropa[f]indazole-3-carboxamide]
0.014	CN[C@@H](C)C(=O)N[C@H](C(=O)N1CCC[C@H]1c1nc(C(=O)c2cccc(OCCOCCOCCOCCOCCC(=O)N3CC([C@@H](c4ccccc4)n4cc(NC(=O)c5n[nH]c6c5C[C@@H]5C(F)(F)[C@]5(C)C6)cn4)C3)c2)cs1)C1CCCCC1 [Compound 6, (4aS,5aR)—N-(1-((S)-(1-(1-(3-(2-((S)-1-((S)-2-cyclohexyl-2-((S)-2-(methylamino)propanamido)acetyl)pyrrolidin-2-yl)thiazole-4-carbonyl)phenoxy)-3,6,9,12-tetraoxapentadecan-15-oyl)azetidin-3-yl)(phenyl)methyl)-1H-pyrazol-4-yl)-5,5-difluoro-5a-methyl-1,4,4a,5,5a,6-hexahydrocyclopropa[f]indazole-3-carboxamide]
0.00477	CN[C@@H](C)C(=O)N[C@H](C(=O)N1CCC[C@H]1c1nc(C(=O)c2cccc(OCCCCN3CC([C@@H](c4ccccc4)n4cc(NC(=O)c5n[nH]c6c5C[C@@H]5C(F)(F)[C@]5(C)C6)cn4)C3)c2)cs1)C1CCCCC1 [Compound 7, (4aS,5aR)—N-(1-((S)-(1-(4-(3-(2-((S)-1-((S)-2-cyclohexyl-2-((S)-2-(methylamino)propanamido)acetyl)pyrrolidin-2-yl)thiazole-4-carbonyl)phenoxy)butyl)azetidin-3-yl)(phenyl)methyl)-1H-pyrazol-4-yl)-5,5-difluoro-5a-methyl-1,4,4a,5,5a,6-hexahydrocyclopropa[f]indazole-3-carboxamide]
0.049	CN[C@@H](C)C(=O)N[C@H](C(=O)N1CCC[C@H]1c1nc(C(=O)c2cccc(OCCCN3CC([C@@H](c4ccccc4)n4cc(NC(=O)c5n[nH]c6c5C[C@@H]5C(F)(F)[C@]5(C)C6)cn4)C3)c2)cs1)C1CCCCC1 [Compound 8, (4aS,5aR)—N-(1-((S)-(1-(3-(3-(2-((S)-1-((S)-2-cyclohexyl-2-((S)-2-(methylamino)propanamido)acetyl)pyrrolidin-2-yl)thiazole-4-carbonyl)phenoxy)propyl)azetidin-3-yl)(phenyl)methyl)-1H-pyrazol-4-yl)-5,5-difluoro-5a-methyl-1,4,4a,5,5a,6-hexahydrocyclopropa[f]indazole-3-carboxamide]
0.0529	CN[C@@H](C)C(=O)N[C@H](C(=O)N1CCC[C@H]1c1nc(C(=O)c2cccc(OCCCCCCN3CC([C@@H](c4ccccc4)n4cc(NC(=O)c5n[nH]c6c5C[C@@H]5C(F)(F)[C@]5(C)C6)cn4)C3)c2)cs1)C1CCCCC1 [Compound 9, (4aS,5aR)—N-(1-((S)-(1-(6-(3-(2-((S)-1-((S)-2-cyclohexyl-2-((S)-2-(methylamino)propanamido)acetyl)pyrrolidin-2-yl)thiazole-4-carbonyl)phenoxy)hexyl)azetidin-3-yl)(phenyl)methyl)-1H-pyrazol-4-yl)-5,5-difluoro-5a-methyl-1,4,4a,5,5a,6-hexahydrocyclopropa[f]indazole-3-carboxamide]
0.0222	CN[C@@H](C)C(=O)N[C@H](C(=O)N1CCC[C@H]1c1nc(C(=O)c2cccc(OCCCCCN3CC([C@@H](c4ccccc4)n4cc(NC(=O)c5n[nH]c6c5C[C@@H]5C(F)(F)[C@]5(C)C6)cn4)C3)c2)cs1)C1CCCCC1 [Compound 10, (4aS,5aR)—N-(1-((S)-(1-(5-(3-(2-((S)-1-((S)-2-cyclohexyl-2-((S)-2-(methylamino)propanamido)acetyl)pyrrolidin-2-yl)thiazole-4-carbonyl)phenoxy)pentyl)azetidin-3-yl)(phenyl)methyl)-1H-pyrazol-4-yl)-5,5-difluoro-5a-methyl-1,4,4a,5,5a,6-hexahydrocyclopropa[f]indazole-3-carboxamide]
